For the first assay, the system named is 429239-143-T-J1-PDC complex spheroid viability. The experiment in a line: Anticancer human tumor 429239-143-T-J1-PDC patient-derived small cell lung carcinoma cell line growth inhibition [POLQ]. Conditions: second compound 1 µM; first compound 0.316 µM; hits give low values. The procedure, abridged: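 Patient-derived tumour cells were co-cultured with HUVEC and mesenchymal stem cells as multicellular spheroids at 37 °C. They were treated with POLQ inhibitors (novobiocin, ART-558, RP6685) alone or combined with other agents. Top concentrations were at or near clinical Cmax (otherwise 10 microM; SN-38 at 1 microM), decreasing in half-log steps.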
`CC1COCCN1c1cc(C2(O)CC3CCC(C2)O3)c2cnn(-c3ccn[nH]3)c2n1` (stereo unspecified) + Nc1ccc(C#CCN(C(=O)Cc2ncc(C(F)(F)F)cc2C(F)(F)F)c2ccc(F)cc2)nn1: the viability, T/C (in general, the ratio of treated to control) was 46.8%.

Turning to `CCc1cc2c(N3CCc4c(cc(Cn5ccnc5)cc4-c4cn(C)nc4C(F)(F)F)C3=O)cc(C)nc2c(OC)n1` + Nc1ccc(C#CCN(C(=O)Cc2ncc(C(F)(F)F)cc2C(F)(F)F)c2ccc(F)cc2)nn1, the viability, T/C is 91.7%.

For `COc1cc2cc(C(=O)CCC(=O)O)sc2cc1OC` + Nc1ccc(C#CCN(C(=O)Cc2ncc(C(F)(F)F)cc2C(F)(F)F)c2ccc(F)cc2)nn1, the viability, T/C is 94.8%.

Regarding `O=C(Nc1ccc(O)c(NS(=O)(=O)c2ccc(F)cc2)c1)c1ccc(-c2ccccc2)cc1` + Nc1ccc(C#CCN(C(=O)Cc2ncc(C(F)(F)F)cc2C(F)(F)F)c2ccc(F)cc2)nn1, the viability, T/C was 95.8%.

Staying with this assay, now noted: second compound 1 µM; first compound 1 µM; hits give low values.
Regarding `C#Cc1c(F)ccc2cc(O)cc(-c3ncc4c(N5CC6CCC(C5)N6)nc(OCC56CCCN5CC(F)C6)nc4c3F)c12` (stereo unspecified) + Nc1ccc(C#CCN(C(=O)Cc2ncc(C(F)(F)F)cc2C(F)(F)F)c2ccc(F)cc2)nn1, the viability, T/C is 105%.

`CC1COCCN1c1cc(C2(O)CC3CCC(C2)O3)c2cnn(-c3ccn[nH]3)c2n1` (stereo unspecified) + Nc1ccc(C#CCN(C(=O)Cc2ncc(C(F)(F)F)cc2C(F)(F)F)c2ccc(F)cc2)nn1: the viability, T/C is 6.97%.

On to `CCc1cc2c(N3CCc4c(cc(Cn5ccnc5)cc4-c4cn(C)nc4C(F)(F)F)C3=O)cc(C)nc2c(OC)n1` + Nc1ccc(C#CCN(C(=O)Cc2ncc(C(F)(F)F)cc2C(F)(F)F)c2ccc(F)cc2)nn1, for which the viability, T/C was 80.4%.

`COc1cc2cc(C(=O)CCC(=O)O)sc2cc1OC` + Nc1ccc(C#CCN(C(=O)Cc2ncc(C(F)(F)F)cc2C(F)(F)F)c2ccc(F)cc2)nn1: the viability, T/C was 97.9%.

On to `O=C(Nc1ccc(O)c(NS(=O)(=O)c2ccc(F)cc2)c1)c1ccc(-c2ccccc2)cc1` + Nc1ccc(C#CCN(C(=O)Cc2ncc(C(F)(F)F)cc2C(F)(F)F)c2ccc(F)cc2)nn1, for which the viability, T/C was 106%.

The assay is the same for the next values; noted with them: second compound 1 µM; first compound 3.16 µM; hits give low values.
With `C#Cc1c(F)ccc2cc(O)cc(-c3ncc4c(N5CC6CCC(C5)N6)nc(OCC56CCCN5CC(F)C6)nc4c3F)c12` (stereo unspecified) + Nc1ccc(C#CCN(C(=O)Cc2ncc(C(F)(F)F)cc2C(F)(F)F)c2ccc(F)cc2)nn1, the viability, T/C is 99.7%.

As to `CC1COCCN1c1cc(C2(O)CC3CCC(C2)O3)c2cnn(-c3ccn[nH]3)c2n1` (stereo unspecified) + Nc1ccc(C#CCN(C(=O)Cc2ncc(C(F)(F)F)cc2C(F)(F)F)c2ccc(F)cc2)nn1, the viability, T/C is 3.6%.

In the case of `CCc1cc2c(N3CCc4c(cc(Cn5ccnc5)cc4-c4cn(C)nc4C(F)(F)F)C3=O)cc(C)nc2c(OC)n1` + Nc1ccc(C#CCN(C(=O)Cc2ncc(C(F)(F)F)cc2C(F)(F)F)c2ccc(F)cc2)nn1, the viability, T/C is 76%.

For `COc1cc2cc(C(=O)CCC(=O)O)sc2cc1OC` + Nc1ccc(C#CCN(C(=O)Cc2ncc(C(F)(F)F)cc2C(F)(F)F)c2ccc(F)cc2)nn1, the viability, T/C is 100%.

Turning to `O=C(Nc1ccc(O)c(NS(=O)(=O)c2ccc(F)cc2)c1)c1ccc(-c2ccccc2)cc1` + Nc1ccc(C#CCN(C(=O)Cc2ncc(C(F)(F)F)cc2C(F)(F)F)c2ccc(F)cc2)nn1, the viability, T/C was 113%.

Staying with this assay, now noted: second compound 1 µM; first compound 10 µM; hits give low values.
As to `C#Cc1c(F)ccc2cc(O)cc(-c3ncc4c(N5CC6CCC(C5)N6)nc(OCC56CCCN5CC(F)C6)nc4c3F)c12` (stereo unspecified) + Nc1ccc(C#CCN(C(=O)Cc2ncc(C(F)(F)F)cc2C(F)(F)F)c2ccc(F)cc2)nn1, the viability, T/C is 93.1%.

`CC1COCCN1c1cc(C2(O)CC3CCC(C2)O3)c2cnn(-c3ccn[nH]3)c2n1` (stereo unspecified) + Nc1ccc(C#CCN(C(=O)Cc2ncc(C(F)(F)F)cc2C(F)(F)F)c2ccc(F)cc2)nn1: the viability, T/C was 2.11%.

Consider `CCc1cc2c(N3CCc4c(cc(Cn5ccnc5)cc4-c4cn(C)nc4C(F)(F)F)C3=O)cc(C)nc2c(OC)n1` + Nc1ccc(C#CCN(C(=O)Cc2ncc(C(F)(F)F)cc2C(F)(F)F)c2ccc(F)cc2)nn1, for which the viability, T/C was 40%.

Regarding `COc1cc2cc(C(=O)CCC(=O)O)sc2cc1OC` + Nc1ccc(C#CCN(C(=O)Cc2ncc(C(F)(F)F)cc2C(F)(F)F)c2ccc(F)cc2)nn1, the viability, T/C is 105%.

For the compound `O=C(Nc1ccc(O)c(NS(=O)(=O)c2ccc(F)cc2)c1)c1ccc(-c2ccccc2)cc1` + Nc1ccc(C#CCN(C(=O)Cc2ncc(C(F)(F)F)cc2C(F)(F)F)c2ccc(F)cc2)nn1, the viability, T/C is 109%.

Still in this assay, the particulars now being: second compound 3.16 µM; first compound 0.0316 µM; hits give low values.
Consider `C#Cc1c(F)ccc2cc(O)cc(-c3ncc4c(N5CC6CCC(C5)N6)nc(OCC56CCCN5CC(F)C6)nc4c3F)c12` (stereo unspecified) + Nc1ccc(C#CCN(C(=O)Cc2ncc(C(F)(F)F)cc2C(F)(F)F)c2ccc(F)cc2)nn1, for which the viability, T/C is 99.4%.

Turning to `CC1COCCN1c1cc(C2(O)CC3CCC(C2)O3)c2cnn(-c3ccn[nH]3)c2n1` (stereo unspecified) + Nc1ccc(C#CCN(C(=O)Cc2ncc(C(F)(F)F)cc2C(F)(F)F)c2ccc(F)cc2)nn1, the viability, T/C was 81.1%.

For the compound `CCc1cc2c(N3CCc4c(cc(Cn5ccnc5)cc4-c4cn(C)nc4C(F)(F)F)C3=O)cc(C)nc2c(OC)n1` + Nc1ccc(C#CCN(C(=O)Cc2ncc(C(F)(F)F)cc2C(F)(F)F)c2ccc(F)cc2)nn1, the viability, T/C is 101%.

On to `COc1cc2cc(C(=O)CCC(=O)O)sc2cc1OC` + Nc1ccc(C#CCN(C(=O)Cc2ncc(C(F)(F)F)cc2C(F)(F)F)c2ccc(F)cc2)nn1, for which the viability, T/C was 97%.

On to `O=C(Nc1ccc(O)c(NS(=O)(=O)c2ccc(F)cc2)c1)c1ccc(-c2ccccc2)cc1` + Nc1ccc(C#CCN(C(=O)Cc2ncc(C(F)(F)F)cc2C(F)(F)F)c2ccc(F)cc2)nn1, for which the viability, T/C was 107%.

Still in this assay, the particulars now being: second compound 3.16 µM; first compound 0.1 µM; hits give low values.
Turning to `C#Cc1c(F)ccc2cc(O)cc(-c3ncc4c(N5CC6CCC(C5)N6)nc(OCC56CCCN5CC(F)C6)nc4c3F)c12` (stereo unspecified) + Nc1ccc(C#CCN(C(=O)Cc2ncc(C(F)(F)F)cc2C(F)(F)F)c2ccc(F)cc2)nn1, the viability, T/C was 98%.

Turning to `CC1COCCN1c1cc(C2(O)CC3CCC(C2)O3)c2cnn(-c3ccn[nH]3)c2n1` (stereo unspecified) + Nc1ccc(C#CCN(C(=O)Cc2ncc(C(F)(F)F)cc2C(F)(F)F)c2ccc(F)cc2)nn1, the viability, T/C is 70.4%.

The values above are taken from PubChem BioAssay AID1963845 (Molecular Pharmacology Branch, DTP, NCI, 2024).
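Further: luminescence signal used as surrogate measure of viable cells; spheroids exposed to compounds for seven days before readout; 100% = DMSO vehicle control viability as luminescence relative to vehicle.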
